Measurements as given in patent US12295396B2, “Antagonists of T2R54 and compositions and uses thereof” (Firmenich Incorporated, priority 2018, dated 2025).
Read-outs that look alike come from different tables or passages of the source.

Biological target: T1, hT2R54 (Homo sapiens, UniProt P59534)
T1 construct: expressed in transfected cells; it overexpresses a promiscuous G protein
T1 sequence (P59534 1-338): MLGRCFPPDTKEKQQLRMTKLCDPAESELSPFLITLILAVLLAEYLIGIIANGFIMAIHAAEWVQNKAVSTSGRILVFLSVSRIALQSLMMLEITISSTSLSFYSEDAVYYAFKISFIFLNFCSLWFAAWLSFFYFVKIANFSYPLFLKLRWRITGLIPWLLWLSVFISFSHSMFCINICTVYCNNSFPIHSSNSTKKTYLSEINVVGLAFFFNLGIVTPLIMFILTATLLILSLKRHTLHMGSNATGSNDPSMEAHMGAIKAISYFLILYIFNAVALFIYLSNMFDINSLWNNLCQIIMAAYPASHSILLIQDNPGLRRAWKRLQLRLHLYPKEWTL
Experiment: Cell-based assay for measuring hT2R54 inhibition (FLIPR calcium, Fluo4AM, acetaminophen as bitter agonist)
Settings: read-out: hT2R54 IC50
How it was run: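 The readout was FLIPR calcium (Fluo4AM, 10 s baseline, 3 min post-addition) in cells stably carrying hT2R54 plus a promiscuous G protein, with host cells lacking hT2R54 as counter-control. Acetaminophen concentration series were tested with and without set test-compound levels. Half-maximal block of the agonist response gave the EC50/IC50.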

[1] = Table 2, cells stably expressing hT2R54 and a promiscuous G protein

Row | SMILES | IC50 (Table 8) [nM] | also measured
1 | CC(=O)c1cc2c(cc1NC(=O)CC1CCN(C(C)=O)CC1)OCO2 [compound 232] | > 1000 | –
2 | CCC(=O)N1CCC(CC(=O)Nc2cc3c(cc2C(C)=O)OCO3)CC1 [compound 233] | 86 | –
3 | CCCC(=O)N1CCC(CC(=O)Nc2cc3c(cc2C(C)=O)OCO3)CC1 [compound 234] | > 1000 | –
4 | CCCCC(=O)N1CCC(CC(=O)Nc2cc3c(cc2C(C)=O)OCO3)CC1 [compound 235] | 77 | –
5 | CC(=O)c1cc2c(cc1NC(=O)CC1CCN(C(=O)C(C)C)CC1)OCO2 [compound 236] | > 1000 | –
6 | CC(=O)c1cc2c(cc1NC(=O)CC1CCN(C(=O)C(C)(C)C)CC1)OCO2 [compound 237] | 190 | –
7 | CC(=O)c1cc2c(cc1NC(=O)CC1CCN(C(=O)C3CC3)CC1)OCO2 [compound 238] | 470 | –
8 | CC(=O)c1cc2c(cc1NC(=O)CC1CCN(C(=O)C3CCCCC3)CC1)OCO2 [compound 239] | > 1000 | –
9 | CCOC(=O)N1CCC(CC(=O)Nc2cc3c(cc2C(C)=O)OCO3)CC1 [compound 240] | 34 | –
10 | CCCOC(=O)N1CCC(CC(=O)Nc2cc3c(cc2C(C)=O)OCO3)CC1 [compound 241] | 72 | –
11 | CC(=O)c1cc2c(cc1NC(=O)CC1CCN(C(=O)C3CCCO3)CC1)OCO2 (stereo not drawn) [compound 242] | 68 | –
12 | CC(=O)c1cc2c(cc1NC(=O)CC1CCN(C(=O)C3CCCCO3)CC1)OCO2 (stereo not drawn) [compound 243] | 96 | –
13 | CC(=O)c1cc2c(cc1NC(=O)CC1CCN(C(=O)c3cccnc3)CC1)OCO2 [compound 244] | 51 | –
14 | COCc1cccc(C(=O)N2CCC(CC(=O)Nc3cc4c(cc3C(C)=O)OCO4)CC2)c1 [compound 245] | 44 | –
15 | CC(=O)c1cc2c(cc1NC(=O)CC1CCN(C(=O)c3ccon3)CC1)OCO2 [compound 246] | 2310 | –
16 | CC(=O)c1cc2c(cc1NC(=O)CC1CCN(C(=O)Cc3ccccc3)CC1)OCO2 [compound 247] | 490 | –
17 | CC(=O)c1cc2c(cc1NC(=O)CC1CCN(C(=O)Cc3ccccc3F)CC1)OCO2 [compound 248] | 420 | –
18 | CC(=O)c1cc2c(cc1NC(=O)CC1CCN(C(=O)Cc3cccc(F)c3)CC1)OCO2 [compound 249] | 2540 | –
19 | CC(=O)c1cc2c(cc1NC(=O)CC1CCN(C(=O)Cc3cccnc3)CC1)OCO2 [compound 250] | 760 | –
20 | CC(=O)c1cc2c(cc1NC(=O)CC1CCN(C(=O)Cc3ccncc3)CC1)OCO2 [compound 251] | 580 | –
21 | CC(=O)c1cc2c(cc1NC(=O)CC1CCN(C(=O)Cc3ccccc3O)CC1)OCO2 [compound 252] | 1090 | –
22 | CC(=O)c1cc2c(cc1NC(=O)CC1CCN(C(=O)Cc3cccc(O)c3)CC1)OCO2 [compound 253] | 750 | –
23 | CC(=O)c1cc2c(cc1NC(=O)CC1CCN(C(=O)Cc3ccc(O)cc3)CC1)OCO2 [compound 254] | 320 | –

Row | SMILES | IC50 (Table 8) [nM] | also measured
24 | COc1ccccc1CC(=O)N1CCC(CC(=O)Nc2cc3c(cc2C(C)=O)OCO3)CC1 [compound 255] | 1300 | –
25 | COc1cccc(CC(=O)N2CCC(CC(=O)Nc3cc4c(cc3C(C)=O)OCO4)CC2)c1 [compound 256] | 380 | –
26 | COc1ccc(CC(=O)N2CCC(CC(=O)Nc3cc4c(cc3C(C)=O)OCO4)CC2)cc1 [compound 257] | 1570 | –
27 | CC(=O)c1cc2c(cc1NC(=O)CC1CCN(C(C)=O)C1)OCO2 (stereo not drawn) [compound 258] | 928 | –
28 | CCC(=O)N1CCC(CC(=O)Nc2cc3c(cc2C(C)=O)OCO3)C1 (stereo not drawn) [compound 259] | 2600 | –
29 | CCCC(=O)N1CCC(CC(=O)Nc2cc3c(cc2C(C)=O)OCO3)C1 (stereo not drawn) [compound 260] | 844 | –
30 | CC(=O)c1cc2c(cc1NC(=O)CC1CCN(C(=O)C(C)C)C1)OCO2 (stereo not drawn) [compound 261] | 958 | –
31 | CC(=O)c1cc2c(cc1NC(=O)CC1CCN(C(=O)C(C)(C)C)C1)OCO2 (stereo not drawn) [compound 262] | 290 | –
32 | CC(=O)c1cc2c(cc1NC(=O)CC1CCN(C(=O)CC(C)C)C1)OCO2 (stereo not drawn) [compound 263] | 374 | –
33 | CC(=O)c1cc2c(cc1NC(=O)CC1CCN(C(=O)CC(C)(C)C)C1)OCO2 (stereo not drawn) [compound 264] | 381 | –
34 | CC(=O)c1cc2c(cc1NC(=O)CC1CCN(C(=O)C3CC3)C1)OCO2 (stereo not drawn) [compound 265] | 682 | –
35 | CC(=O)c1cc2c(cc1NC(=O)CC1CCN(C(=O)C3CCCC3)C1)OCO2 (stereo not drawn) [compound 266] | 506 | –
36 | CC(=O)c1cc2c(cc1NC(=O)CC1CCN(C(=O)C3CCCCC3)C1)OCO2 (stereo not drawn) [compound 267] | 2250 | –
37 | CCOC(=O)N1CCC(CC(=O)Nc2cc3c(cc2C(C)=O)OCO3)C1 (stereo not drawn) [compound 268] | 117 | –
38 | CCCOC(=O)N1CCC(CC(=O)Nc2cc3c(cc2C(C)=O)OCO3)C1 (stereo not drawn) [compound 269] | 103 | –
39 | CC(=O)c1cc2c(cc1NC(=O)CC1CCOCC1)OCO2 [compound 270, N-(6-Acetylbenzo[d][1,3]dioxol-5-yl)-2-(tetrahydro-2H-pyran-4-yl)acetamide] | – | IC50 (Table 9): 561 nM
40 | CC(=O)c1cc2c(cc1NC(=O)CC1CCCCO1)OCO2 (stereo not drawn) [compound 271] | – | IC50 (Table 9): 152 nM
41 | CC(=O)c1cc2c(cc1NC(=O)CC1CCOC1)OCO2 (stereo not drawn) [compound 272] | – | IC50 (Table 9): 1390 nM
42 | CC(=O)c1cc2c(cc1NC(=O)Cc1cccnc1)OCO2 [compound 273] | – | IC50 (Table 9): 454 nM
43 | CC(=O)c1cc2c(cc1NC(=O)Cc1ccc(O)cc1)OCO2 [compound 274] | – | IC50 (Table 9): 554 nM
44 | CC(=O)c1cc2c(cc1NC(=O)Cc1ccsc1)OCO2 [compound 275] | – | IC50 (Table 9): 704 nM
45 | COc1ccccc1CC(=O)Nc1cc2c(cc1C(C)=O)OCO2 [compound 276] | – | IC50 (Table 9): 804 nM
46 | CC(=O)c1cc2c(cc1NC(=O)Cc1ccccc1C)OCO2 [compound 277] | – | IC50 (Table 9): 740 nM

Row | SMILES | IC50 (Table 8) [nM] | also measured
47 | CC(=O)c1cc2c(cc1NC(=O)CCc1ccccc1)OCO2 [compound 278] | – | IC50 (Table 9): 1220 nM
48 | COc1ccc(OC)c(CC(=O)Nc2cc3c(cc2C(C)=O)OCO3)c1 [compound 279] | – | IC50 (Table 9): 1470 nM
49 | CC(=O)c1cc2c(cc1NC(=O)Cc1c(C)nn(C)c1C)OCO2 [compound 280] | – | IC50 (Table 9): 1720 nM
50 | COc1cccc(CC(=O)Nc2cc3c(cc2C(C)=O)OCO3)c1 [compound 281] | – | IC50 (Table 9): 1810 nM
51 | COCc1ccc(C(=O)N2CCN(CC(=O)Nc3cc4c(cc3C(C)=O)OCO4)CC2)cc1 [compound 282] | – | IC50 [1]: 38 nM
52 | COCc1cccc(C(=O)N2CCN(CC(=O)Nc3cc4c(cc3C(C)=O)OCO4)CC2)n1 [compound 283] | – | IC50 [1]: 125 nM
53 | CC(=O)c1cc2c(cc1NC(=O)CN1CCN(C(=O)c3csnn3)CC1)OCO2 [compound 284] | – | IC50 [1]: 30 nM
54 | CC(=O)c1cc2c(cc1NC(=O)CN1CCN(C(=O)c3cscn3)CC1)OCO2 [compound 285] | – | IC50 [1]: 34 nM
55 | CC(=O)c1cc2c(cc1NC(=O)CN1CCN(C(=O)c3cocn3)CC1)OCO2 [compound 286] | – | IC50 [1]: 108 nM
56 | CC(=O)c1cc2c(cc1NC(=O)CN1CCN(C(=O)c3ccc(CO)o3)CC1)OCO2 [compound 287] | – | IC50 [1]: 230 nM
57 | COCc1ccc(C(=O)N2CCN(CC(=O)Nc3cc4c(cc3C(C)=O)OCO4)CC2)o1 [compound 288] | – | IC50 [1]: 65 nM
58 | COCc1ccc(C(=O)N2CCN(CC(=O)Nc3cc4c(cc3C(C)=O)OCO4)CC2)s1 [compound 289] | – | IC50 [1]: 21 nM
59 | CC(=O)c1cc2c(cc1NC(=O)CN1CCN(C(=O)c3cc(C)c(C)o3)CC1)OCO2 [compound 290] | – | IC50 [1]: 10 nM
60 | CCc1oc(C(=O)N2CCN(CC(=O)Nc3cc4c(cc3C(C)=O)OCO4)CC2)cc1COC [compound 291] | – | IC50 [1]: 49 nM
61 | CC(=O)c1cc2c(cc1NC(=O)CN1CCN(C(=O)c3ccc(Cn4cccn4)o3)CC1)OCO2 [compound 292] | – | IC50 [1]: 6 nM
62 | CC(=O)c1cc2c(cc1NC(=O)CN1CCN(C(=O)c3cc(C)no3)CC1)OCO2 [compound 293] | – | IC50 [1]: 8 nM
63 | COCc1cc(C(=O)N2CCN(CC(=O)Nc3cc4c(cc3C(C)=O)OCO4)CC2)no1 [compound 294] | – | IC50 [1]: 70 nM
64 | COCc1nc(C(=O)N2CCN(CC(=O)Nc3cc4c(cc3C(C)=O)OCO4)CC2)cs1 [compound 295] | – | IC50 [1]: 20 nM
65 | COCc1nc(C(=O)N2CCN(CC(=O)Nc3cc4c(cc3C(C)=O)OCO4)CC2)co1 [compound 296] | – | IC50 [1]: 53 nM
66 | CC(=O)c1cc2c(cc1NC(=O)CN1CCN(C(=O)c3coc(C)n3)CC1)OCO2 [compound 297] | – | IC50 [1]: 23 nM
67 | CC(=O)c1cc2c(cc1NC(=O)CN1CCN(C(=O)c3conc3C)CC1)OCO2 [compound 298] | – | IC50 [1]: 91 nM
68 | CC(=O)c1cc2c(cc1NC(=O)CN1CCN(C(=O)c3ncoc3C)CC1)OCO2 [compound 299] | – | IC50 [1]: 58 nM
69 | CC(=O)c1cc2c(cc1NC(=O)CN1CCN(C(=O)c3cc(C)on3)CC1)OCO2 [compound 300] | – | IC50 [1]: 40 nM
